{"source": "patent US10168342B2", "about": "“Lipid probes and uses thereof” (THE SCRIPPS RESEARCH INSTITUTE, priority 2015, dated 2019)", "key": {"[1]": {"biological_target": "T1, lipid-binding proteins in Neuro2a cells (Mus musculus, UniProt P52019)", "T1 construct": "endogenous in cells; host or cells: Neuro2a", "T1 sequence (P52019 whole entry)": "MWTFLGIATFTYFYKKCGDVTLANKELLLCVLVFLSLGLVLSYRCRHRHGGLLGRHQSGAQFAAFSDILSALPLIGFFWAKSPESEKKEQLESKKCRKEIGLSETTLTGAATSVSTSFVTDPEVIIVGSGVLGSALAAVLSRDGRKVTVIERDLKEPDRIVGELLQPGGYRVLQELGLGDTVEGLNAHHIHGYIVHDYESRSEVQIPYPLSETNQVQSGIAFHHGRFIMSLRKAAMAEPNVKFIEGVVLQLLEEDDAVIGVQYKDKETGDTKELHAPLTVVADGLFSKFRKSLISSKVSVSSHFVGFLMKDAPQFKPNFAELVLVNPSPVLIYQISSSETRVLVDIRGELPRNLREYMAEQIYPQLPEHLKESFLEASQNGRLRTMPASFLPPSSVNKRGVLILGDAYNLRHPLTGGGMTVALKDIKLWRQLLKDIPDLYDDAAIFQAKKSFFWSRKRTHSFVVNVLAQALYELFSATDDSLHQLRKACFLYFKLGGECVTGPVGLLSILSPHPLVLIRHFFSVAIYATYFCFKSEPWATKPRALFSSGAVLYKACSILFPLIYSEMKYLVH", "test": "SILAC MS mapping of lipid probe targets (probe-versus-No UV, probe-versus-probe) in Neuro2a cells", "format": "cell-based", "details": "AEA-DA probe vs NoUV"}, "[2]": {"biological_target": "T2, lipid-binding proteins in Neuro2a cells (Mus musculus, UniProt P97300)", "T2 construct": "endogenous in cells; host or cells: Neuro2a", "T2 sequence (P97300 29-397)": "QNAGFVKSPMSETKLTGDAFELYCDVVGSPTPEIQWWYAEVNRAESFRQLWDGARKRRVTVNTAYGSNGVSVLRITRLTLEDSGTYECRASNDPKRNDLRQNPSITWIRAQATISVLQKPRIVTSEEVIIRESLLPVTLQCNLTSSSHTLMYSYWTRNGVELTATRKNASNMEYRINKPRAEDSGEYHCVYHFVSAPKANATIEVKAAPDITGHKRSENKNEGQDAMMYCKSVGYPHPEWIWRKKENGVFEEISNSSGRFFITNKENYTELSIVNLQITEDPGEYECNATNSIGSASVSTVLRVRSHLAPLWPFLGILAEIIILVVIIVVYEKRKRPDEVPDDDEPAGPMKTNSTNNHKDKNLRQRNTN", "test": "SILAC MS mapping of lipid probe targets (probe-versus-No UV, probe-versus-probe) in Neuro2a cells", "format": "cell-based", "details": "AEA-DA probe vs NoUV"}, "[3]": {"biological_target": "T3, lipid-binding proteins in Neuro2a cells (Mus musculus, UniProt Q61712)", "T3 construct": "endogenous in cells; host or cells: Neuro2a", "T3 sequence (Q61712 44-552)": "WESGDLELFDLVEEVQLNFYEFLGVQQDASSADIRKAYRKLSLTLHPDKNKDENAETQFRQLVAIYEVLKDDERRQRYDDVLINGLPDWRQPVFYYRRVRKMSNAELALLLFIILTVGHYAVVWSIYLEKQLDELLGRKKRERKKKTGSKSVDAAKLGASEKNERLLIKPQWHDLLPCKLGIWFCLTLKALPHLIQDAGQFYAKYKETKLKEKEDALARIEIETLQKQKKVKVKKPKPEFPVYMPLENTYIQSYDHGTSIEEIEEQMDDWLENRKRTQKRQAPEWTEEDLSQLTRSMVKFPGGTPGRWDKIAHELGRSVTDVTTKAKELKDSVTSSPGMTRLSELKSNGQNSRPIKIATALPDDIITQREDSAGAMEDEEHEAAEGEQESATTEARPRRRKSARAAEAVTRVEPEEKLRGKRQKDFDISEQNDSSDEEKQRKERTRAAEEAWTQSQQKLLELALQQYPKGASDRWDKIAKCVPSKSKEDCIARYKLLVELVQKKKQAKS", "test": "SILAC MS mapping of lipid probe targets (probe-versus-No UV, probe-versus-probe) in Neuro2a cells", "format": "cell-based", "details": "AEA-DA probe vs NoUV"}, "[4]": {"system": "membrane and soluble proteins of HEK293T cells", "test": "Gel-based profiling of lipid probe labeling in HEK293T cells", "format": "cell-based, human", "details": "probe 20 μM, 30 min, UV", "procedure": "For gel-based analysis, after sonicating the membrane pellets in cold DPBS, protein concentrations of each fraction were determined using the BCA protein assay (Bio-Rad) and a microplate reader (Tecan, Infinite F500).\nProteomes were diluted to 1.0 mg/mL (total protein concentration) and 50 μL of each proteome was transferred to separate wells in a 96-well plate.\nIn some instances, within the arachidonoyl subset of probes, fatty acid- and fatty acid amide-based probes (AA-DA and AEA-DA, respectively) were synthesized and their potential were evaluated to bind and covalently modify (under UV-light exposure) proteins in human cells by gel-based profiling. For example, HEK293T cells were treated with probe (AA-DA or AEA-DA; 20 μM, 30 min), irradiated with UV light (10 min, 4° C.), lysed and the cell proteomes fractionated into membrane and soluble components by centrifugation prior to conjugation to a fluorescent reporter tag (Rh—N3) using CuAAC (FIG. 4A). […] In some instances, this was a consequence of rapid sequestration of this probe into membranes through its metabolic incorporation into phospho/neutral-lipids or into lipidated proteins. […] In some instances, the labeling profile of the AEA-DA probe reflected a limited capacity of the cell to metabolize this amidated probe, which undergoes enzyme-mediated hydrolysis prior to incorporation into other lipids or proteins."}}, "data": [{"smiles": "C#CCCCC1(CC/C=C\\C/C=C\\C/C=C\\CCCC(=O)NCCO)N=N1", "note": "[AEA-DA, (5Z,8Z,11Z)-N-(2-hydroxyethyl)-14-(3-(pent-4-yn-1-yl)-3H-diazirin-3-yl)tetradeca-5,8,11-trienamide]", "values": [{"measurement": "SILAC ratio, SQLE (Q14534)", "setting": "[1]", "value": 5.0}, {"measurement": "SILAC ratio, NPTN (Q9Y639)", "setting": "[2]", "value": 17.4}, {"measurement": "SILAC ratio, DNAJC1 (Q96KC8)", "setting": "[3]", "value": 20.0}, {"measurement": "protein labeling profile (membrane vs soluble)", "setting": "[4]", "value": "substantial labeling of both soluble and membrane proteins"}]}]}
